According to patent US11046725B2, “Galactoside inhibitor of galectins” (GALECTO BIOTECH AB, priority 2018, dated 2021):

Key:
galectins = settings: cited from earlier work
Galectin-1 = Galectin-1 (Homo sapiens (Human), UniProt P09382); test: Fluorescence anisotropy assay, inhibition of galectin / fluorescein tagged saccharide probe interaction; format: binding
Galectin-3 = Galectin-3 (Homo sapiens (Human), UniProt P17931); test: as above; format: binding
Experimental: Experimental Procedures (Evaluation of Kd Values)
The affinity of Example 1-33 for galectins were determined by a fluorescence anisotropy assay where the compound was used as an inhibitor of the interaction between galectin and a fluorescein tagged saccharide probe as described Sörme, P., Kahl-Knutsson, B., Huflejt, M., Nilsson, U. J., and Leffler H. (2004) Fluorescence polarization as an analytical tool to evaluate galectin-ligand interactions. Anal. Biochem. 334: 36-47, (Sörme et al., 2004) and Monovalent interactions of Galectin-1 By Salomonsson, Emma; Larumbe, Amaia; Tejler, Johan; Tullberg, Erik; Rydberg, Hanna; Sundin, Anders; Khabut, Areej; Frejd, Torbjorn; Lobsanov, Yuri D.; Rini, James M.; et al, From Biochemistry (2010), 49(44), 9518-9532, (Salomonsson et al., 2010).

Sequence of Galectin-3 (P17931 whole entry): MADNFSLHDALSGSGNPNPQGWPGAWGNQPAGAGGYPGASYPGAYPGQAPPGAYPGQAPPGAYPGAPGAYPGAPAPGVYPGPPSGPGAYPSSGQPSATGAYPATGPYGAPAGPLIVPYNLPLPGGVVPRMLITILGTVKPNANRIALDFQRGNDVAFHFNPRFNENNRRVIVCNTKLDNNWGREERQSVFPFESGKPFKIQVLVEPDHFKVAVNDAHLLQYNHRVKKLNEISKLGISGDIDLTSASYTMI
Sequence of Galectin-1 (P09382 whole entry): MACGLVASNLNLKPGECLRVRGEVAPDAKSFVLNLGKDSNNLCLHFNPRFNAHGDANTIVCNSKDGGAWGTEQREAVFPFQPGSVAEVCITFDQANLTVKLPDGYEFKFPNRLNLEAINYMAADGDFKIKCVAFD

Kd (Galectin-1) [µM]	Kd (Galectin-3) [µM]	SMILES	affinity relative to lactose (galectins; compared with lactose)	Kd (galectins; Leffler, 2001, Leffler et al., 2004, read-out: Kd, all galectins) [µM]
		O=C[C@H](O)[C@@H](O)[C@@H](O)[C@H](O)CO [Galactose, D-galactose]	50-100 times lower	
0.49	1.4	OC[C@H]1O[C@H](Sc2ccc(Cl)c(Cl)c2)[C@H](O)[C@@H](n2cc(-c3csc(Cl)n3)nn2)[C@H]1O [Example 7, 3,4-Dichlorophenyl 3-[4-(2-chlorothiazol-4-yl)-1H-1,2,3-triazol-1-yl]-3-deoxy-1-thio-α-D-galactopyranoside]		
0.028	2.8	OC[C@H]1O[C@H](Sc2cnc(C(F)(F)F)c(Cl)c2)[C@H](O)[C@@H](n2cc(-c3csc(O)n3)nn2)[C@H]1O [Example 17, 5-Chloro-6-trifluoromethyl-pyridin-3-yl 3-deoxy-3-[4-(2-hydroxythiazol-4-yl)-1H-1,2,3-triazol-1-yl]-1-thio-α-D-galactopyranoside]		
0.05	4.6	OC[C@H]1O[C@H](Sc2cc(Br)c(F)c(Br)c2)[C@H](O)[C@@H](n2cc(-c3csc(O)n3)nn2)[C@H]1O [Example 21, 3,5-dibromo-4-fluorophenyl 3-deoxy-3-[4-(2-hydroxythiazol-4-yl)-1H-1,2,3-triazol-1-yl]-1-thio-α-D-galactopyranoside]		
0.095	0.22	N#Cc1ncc(Cl)cc1S[C@H]1O[C@H](CO)[C@H](O)[C@H](n2cc(-c3nc(Cl)cs3)nn2)[C@H]1O [Example 5, 5-Chloro-2-cyano-pyridine-3-yl 3-[4-(4-chlorothiazol-2-yl)-1H-1,2,3-triazol-1-yl]-3-deoxy-1-thio-α-D-galactopyranoside]		
0.085	0.2	N#Cc1ncc(Br)cc1S[C@H]1O[C@H](CO)[C@H](O)[C@H](n2cc(-c3nc(Cl)cs3)nn2)[C@H]1O [Example 4, 5-Bromo-2-cyano-pyridine-3-yl 3-[4-(4-chlorothiazol-2-yl)-1H-1,2,3-triazol-1-yl]-3-deoxy-1-thio-α-D-galactopyranoside]		
0.056	6	OC[C@H]1O[C@H](Sc2cc(Cl)c(Cl)c(Cl)c2)[C@H](O)[C@@H](n2cc(-c3csc(O)n3)nn2)[C@H]1O [Example 20, 3,4,5-trichlorophenyl 3-deoxy-3-[4-(2-hydroxythiazol-4-yl)-1H-1,2,3-triazol-1-yl]-1-thio-α-D-galactopyranoside]		
0.013	4.6	OC[C@H]1O[C@H](Sc2cc(Cl)c(Cl)cc2F)[C@H](O)[C@@H](n2cc(-c3csc(O)n3)nn2)[C@H]1O [Example 31, 3,4-Dichloro-6-fluoro-phenyl 3-deoxy-3-[4-(2-hydroxythiazol-4-yl)-1H-1,2,3-triazol-1-yl]-1-thio-α-D-galactopyranoside]		
0.11	0.25	OC[C@H]1O[C@H](Sc2cnc(C(F)(F)F)c(Br)c2)[C@H](O)[C@@H](n2cc(-c3nc(Cl)cs3)nn2)[C@H]1O [Example 1, 5-Bromo-6-trifluoromethyl-pyridine-3-yl 3-[4-(4-chlorothiazol-2-yl)-1H-1,2,3-triazol-1-yl]-3-deoxy-1-thio-α-D-galactopyranoside]		
		OC[C@H]1O[C@@H](O[C@H]2[C@H](O)[C@@H](O)C(O)O[C@@H]2CO)[C@H](O)[C@@H](O)[C@H]1O (stereo partly shown) [Lactose]		100 to 1000
0.068	0.25	N#Cc1ncc(S[C@H]2O[C@H](CO)[C@H](O)[C@H](n3cc(-c4nc(Cl)cs4)nn3)[C@H]2O)cc1Br [Example 6, 5-Bromo-6-cyano-3-pyridyl 3-[4-(4-chlorothiazol-2-yl)-1H-1,2,3-triazol-1-yl]-3-deoxy-1-thio-α-D-galactopyranoside]		
0.054	1.7	CN(C)C(=O)c1ncc(Cl)cc1S[C@H]1OC(CO)[C@H](O)[C@H](n2cc(-c3csc(O)n3)nn2)C1O (stereo partly drawn) [Example 33, 5-Chloro-N,N′-dimethyl-picolinamide-3-yl 3-deoxy-3-[4-(2-hydroxythiazol-4-yl)-1H-1,2,3-triazol-1-yl]-1-thio-α-D-galactopyranoside]		
0.39	0.069	OC[C@H]1O[C@H](Sc2cnc(C(F)(F)F)c(Br)c2)[C@H](O)[C@@H](n2cc(-c3nc(Cl)c(Cl)s3)nn2)[C@H]1O [Example 29, 5-Bromo-6-trifluoromethyl-pyridine-3-yl 3-deoxy-3-[4-(4,5-dichlorothiazol-2-yl)-1H-1,2,3-triazol-1-yl]-1-thio-α-D-galactopyranoside]		
0.006	2.2	N#Cc1ncc(Cl)cc1S[C@H]1O[C@H](CO)[C@H](O)[C@H](n2cc(-c3csc(O)n3)nn2)[C@H]1O [Example 16, 5-Chloro-2-cyano-3-pyridyl 3-deoxy-3-[4-(2-hydroxythiazol-4-yl)-1H-1,2,3-triazol-1-yl]-1-thio-α-D-galactopyranoside]		
0.16	0.58	OC[C@H]1O[C@H](Sc2cnc(C(F)(F)F)c(Br)c2)[C@H](O)[C@@H](n2cc(-c3nc(Br)cs3)nn2)[C@H]1O [Example 2, 5-Bromo-6-trifluoromethyl-pyridine-3-yl 3-[4-(4-bromothiazol-2-yl)-1H-1,2,3-triazol-1-yl]-3-deoxy-1-thio-α-D-galactopyranoside]		
0.046	5.7	O=C(O)c1ncc(Cl)cc1S[C@H]1O[C@H](CO)[C@H](O)[C@H](n2cc(-c3csc(O)n3)nn2)[C@H]1O [Example 28, 2-carboxy-5-chloropyridyl 3-deoxy-3-[4-(2-hydroxythiazol-4-yl)-1H-1,2,3-triazol-1-yl]-1-thio-α-D-galactopyranoside]		
0.095	0.42	N#Cc1ncc(S[C@H]2O[C@H](CO)[C@H](O)[C@H](n3cc(-c4nc(Cl)cs4)nn3)[C@H]2O)cc1Cl [Example 3, 5-Chloro-6-cyano-pyridine-3-yl 3-[4-(4-chlorothiazol-2-yl)-1H-1,2,3-triazol-1-yl]-3-deoxy-1-thio-α-D-galactopyranoside]		
0.032	3.1	OC[C@H]1O[C@H](Sc2cnc(C(F)(F)F)c(Br)c2)[C@H](O)[C@@H](n2cc(-c3csc(O)n3)nn2)[C@H]1O [Example 23, 5-Bromo-6-trifluoromethyl-3-pyridyl 3-deoxy-3-[4-(2-hydroxythiazol-4-yl)-1H-1,2,3-triazol-1-yl]-1-thio-α-D-galactopyranoside]		
0.033	2.6	N#Cc1ncc(Br)cc1S[C@H]1O[C@H](CO)[C@H](O)[C@H](n2cc(-c3csc(O)n3)nn2)[C@H]1O [Example 14, 5-Bromo-2-cyano-pyridine-3-yl 3-deoxy-3-[4-(2-hydroxythiazol-4-yl)-1H-1,2,3-triazol-1-yl]-1-thio-α-D-galactopyranoside]		
0.071	6.5	OC[C@H]1O[C@H](Sc2ccc(C(F)(F)F)c(Cl)c2)[C@H](O)[C@@H](n2cc(-c3csc(O)n3)nn2)[C@H]1O [Example 24, 3-Chloro-4-trifluoromethylphenyl 3-deoxy-3-[4-(2-hydroxythiazol-4-yl)-1H-1,2,3-triazol-1-yl]-1-thio-α-D-galactopyranoside]		
0.019	2.8	N#Cc1ncc(S[C@H]2O[C@H](CO)[C@H](O)[C@H](n3cc(-c4csc(O)n4)nn3)[C@H]2O)cc1Br [Example 15, 5-Bromo-6-cyano-3-pyridyl 3-deoxy-3-[4-(2-hydroxythiazol-4-yl)-1H-1,2,3-triazol-1-yl]-1-thio-α-D-galactopyranoside]		
0.044	2.1	CN(C)C(=O)c1ccc(Cl)cc1S[C@H]1OC(CO)[C@H](O)[C@H](n2cc(-c3csc(O)n3)nn2)C1O (stereo partly drawn) [Example 32, 4-Chloro-N,N′-dimethylbenzamide-2-yl 3-deoxy-3-[4-(2-hydroxythiazol-4-yl)-1H-1,2,3-triazol-1-yl]-1-thio-α-D-galactopyranoside]		
0.038	8	N#Cc1ncc(S[C@H]2O[C@H](CO)[C@H](O)[C@H](n3cc(-c4csc(O)n4)nn3)[C@H]2O)cc1Cl [Example 13, 5-Chloro-6-cyano-pyridine-3-yl 3-deoxy-3-[4-(2-hydroxythiazol-4-yl)-1H-1,2,3-triazol-1-yl]-1-thio-α-D-galactopyranoside]		
0.063	6	N#Cc1ccc(S[C@H]2O[C@H](CO)[C@H](O)[C@H](n3cc(-c4csc(O)n4)nn3)[C@H]2O)cc1Br [Example 22, 3-Bromo-4-cyanophenyl 3-deoxy-3-[4-(2-hydroxythiazol-4-yl)-1H-1,2,3-triazol-1-yl]-1-thio-α-D-galactopyranoside]		
0.082	6.6	Cc1ccc(S[C@H]2O[C@H](CO)[C@H](O)[C@H](n3cc(-c4csc(O)n4)nn3)[C@H]2O)cc1Cl [Example 26, 3-Chloro-4-methylphenyl 3-deoxy-3-[4-(2-hydroxythiazol-4-yl)-1H-1,2,3-triazol-1-yl]-1-thio-α-D-galactopyranoside]		

SMILES	Kd (Galectin-1) [µM]	Kd (Galectin-3) [µM]	affinity relative to lactose (galectins; compared with lactose)	Kd (galectins; Leffler, 2001, Leffler et al., 2004, read-out: Kd, all galectins) [µM]
OC[C@H]1O[C@H](Sc2cc(Cl)c(F)c(Cl)c2)[C@H](O)[C@@H](n2cc(-c3csc(O)n3)nn2)[C@H]1O [Example 18, 3,5-Dichloro-4-fluoro-phenyl 3-deoxy-3-[4-(2-hydroxythiazol-4-yl)-1H-1,2,3-triazol-1-yl]-1-thio-α-D-galactopyranoside]	0.027	9.7		
OC[C@H]1O[C@H](Sc2ccc(Cl)c(Cl)c2)[C@H](O)[C@@H](n2cc(-c3csc(O)n3)nn2)[C@H]1O [Example 12, 3,4-Dichlorophenyl 3-deoxy-3-[4-(2-hydroxythiazol-4-yl)-1H-1,2,3-triazol-1-yl]-1-thio-α-D-galactopyranoside]	0.058	8.6		
